Entries after “also recorded” stand apart in the source; their conditions may differ.
Assays:
[1] = test system: human peripheral blood leukocytes (HPBLs); experiment: HPBL 3H-thymidine incorporation (proliferation); format: cell-based; design: reference not given here
Description: (§1) C. […] This model is used to correlate the effects of biomodulators on the expression of immune response in vitro. The plaque assay disclosed in this reference is used for the determination of the effect of biomodulators on the specificity, class and subclass of individual clones.
(§2) A. Purification of PWM and separation of the differentiative and proliferative functions Pokeweed Mitogen (PWM) and three of its isomitogens, Pa-1 and Pa-5, which are primarily differentiative in nature, and Pa-2 which is primarily proliferative, were prepared according to the method of Waxdal, supra, except that the iso-mitogens were finally purified by isoelectric focusing.

canine glioma cells [2] = experiment: cytotoxicity, simple survival (T50%) of canine glioma cells; format: cell-based; settings: Canis lupus familiaris, Glioma cell, read-out: T 50% (50% inhibitory concentration on simple survival)
Procedure: (§3) Cytotoxicity was determined as a function of simple survival (T50%), adherence (ADH50%) and thymidine incorporation (I50%) of the cells.
(§4) Estimates of the 50% inhibitory concentrations of the various drugs tested on simple survival (T50%) and adherence (ADH50%) for canine glioma cells.

canine glioma cells [3] = experiment: adherence (ADH50%) of canine glioma cells; format: cell-based; settings: Canis lupus familiaris, Glioma cell
Procedure: as §3, §4

canine glioma cells [4] = experiment: thymidine incorporation (I50%) of canine glioma cells; format: cell-based; settings: Canis lupus familiaris, Glioma cell
Procedure: as §3
Estimates of the I50% of the various drugs tested on thymidine incorporation of canine glioma cells in culture.

canine glioma cells [5] = experiment: canine glioma generation times, Compound IIe'; format: cell-based
Procedure: The cells were harvested every 72 hours after the controls had reached 85% confluency. Generation time (Tg) was determined as the number of: hours required for the cell population to double.
Mean of triplicate determinations. Canine glioma cells were grown under conditions to promote exponential growth characteristics; 2×10^5cells in a T-25 flask. The cells were harvested every 72 hours after the controls had reached approximately 85% confluency. The drug was added at the initiation of culture in DMSO, the control cultures had just DMSO. The drug concentration was adjusted with DMSO so that the final concentration of DMSO was always 0.5%.

[6] = test system: human colon carcinoma cell line (LS-174); experiment: LS-174 generation times, Compound IIe'; format: cell-based
Procedure: The procedure of Example VA, above, was repeated except a human colon carcinoma cell line (LS-174) was used instead of the canine glioma cell line.
Mean of triplicate determinations. LS-174 cells (human colon carcinoma) were grown under conditions to promote exponential growth characteristics; 2×10^5 cells in a T-25 flask. The cells were harvested every 72 hours after the controls had reached approximately 85% confluency. The drug was added at the initiation of culture in DMSO, the control cultures had just DMSO. The drug concentration was adjusted with DMSO so that the final concentration of DMSO was always 0.5%.

HMGCoA reductase [7] = biological target: T1, HMGCoA reductase (Rattus norvegicus, UniProt P51639); experiment: inhibition of rat liver HMGCoA reductase activity; format: biochemical; design: from tissue; host or cells: rat liver; settings: read-out: IC50 HMG-CoA reductase
T1 sequence (P51639 1-887): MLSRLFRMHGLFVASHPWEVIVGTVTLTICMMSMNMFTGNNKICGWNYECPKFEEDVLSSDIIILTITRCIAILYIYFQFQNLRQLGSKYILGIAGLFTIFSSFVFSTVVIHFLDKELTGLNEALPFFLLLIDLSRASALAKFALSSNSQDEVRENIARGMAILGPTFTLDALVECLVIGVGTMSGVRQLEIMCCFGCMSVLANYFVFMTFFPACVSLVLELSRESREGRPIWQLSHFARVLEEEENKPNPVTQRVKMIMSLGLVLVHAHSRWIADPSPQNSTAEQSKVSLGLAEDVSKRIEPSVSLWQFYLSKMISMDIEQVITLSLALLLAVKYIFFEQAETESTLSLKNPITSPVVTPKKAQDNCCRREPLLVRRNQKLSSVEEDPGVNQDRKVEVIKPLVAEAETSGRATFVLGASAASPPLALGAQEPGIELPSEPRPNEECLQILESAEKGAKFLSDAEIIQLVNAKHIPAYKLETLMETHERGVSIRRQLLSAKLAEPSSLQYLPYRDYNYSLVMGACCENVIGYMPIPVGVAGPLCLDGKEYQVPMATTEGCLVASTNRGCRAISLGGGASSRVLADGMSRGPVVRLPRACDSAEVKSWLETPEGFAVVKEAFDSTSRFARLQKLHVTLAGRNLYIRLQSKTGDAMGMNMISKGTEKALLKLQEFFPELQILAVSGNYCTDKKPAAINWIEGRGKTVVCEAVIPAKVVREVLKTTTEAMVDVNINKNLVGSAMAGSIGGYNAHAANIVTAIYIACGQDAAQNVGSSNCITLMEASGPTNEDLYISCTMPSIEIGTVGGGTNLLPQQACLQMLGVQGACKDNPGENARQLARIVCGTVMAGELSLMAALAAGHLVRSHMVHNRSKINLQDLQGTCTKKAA
Description: reductase activity; data obtained according to Example IA.

HMGCoA reductase [8] = biological target: T1, HMGCoA reductase; experiment: HMG-CoA reductase inhibition, ED50; format: in vivo; design: from tissue; host or cells: whole animal (in vivo dose in μg/kg); settings: HMG-CoA reductase inhibitor
[9] = test system: human peripheral blood leukocytes (HPBLs); experiment: HPBL plaque forming cell (PFC) assay / IgG production in vitro (differentiation); format: cell-based
Description: as §1, §2
Human peripheral blood leukocytes were cultured in a standard tissue culture medium. Aliquots of these cultured cells (1,000,000 cells/ml medium) were cultured for 6 hours, and the specified amount of Formula II compound was added; the cells were then cultured for an additional 90 hours. Sheep red blood cells (SRBC) conditioned with class-specific (IpG) goat anti-human antiserum (1:400) for 2 hours; then guinea pig complement (2%) for 2 hours were conjugated to Protein A as described in detail in Radioimmunoimaging and Radioimmunotherapy, Eds.

[10] = test system: canine glioma (CG) specific IgG antibody; experiment: CG-specific antibody (IgG) titer in a dog; format: in vivo
CG tumor = experiment: chromium-release cell-mediated lympholysis vs. CG tumor in a dog; format: in vivo
Description: Cellular immune response reflected the results reported in III, 1 above. […] This also is in the absence of CG antigen exposure. […] Thus, both cellular and humoral immunity appear to be modulatable in the absence of antigen by the compounds of the instant invention.

canine glioma cells [11] = experiment: in vivo inhibition of canine glioma in nude rats, compound IIc'
Procedure: Fifty four nude rats (Harlan) were injected in the right flank with 5×10^6 canine glioma cells. Animals at the time of injection were between 52 and 63 days old and weighed approximately 200 g. The rats were divided into 7 groups, each group having a total number of 7 rats except for the control group, which totalled 12 animals. Compound IIc' was administered to the experimental animals at one of the following doses for each experimental group: 100 μg/kg, 10 μg/kg, 1 μg/kg, 0.1 μg/kg, 0.01 μg/kg and 0.001 μg/kg (phosphate buffer saline, M, W, F, I.P.). The control animals were injected with PBS (phosphate buffered saline) only. The volume of each injection was 100 μl. The injections of drug were simultaneously begun with injection of tumor cells. The animals were injected with the appropriate dosage of drug ([…]) by I.P. injection and tumor length, width and depth were measured using caliphers each Monday, Wednesday and Friday (M, W, F) morning for approximately 9 weeks. Each point on the graphs represents the total of all rats for each group. […] The data were normalized for the greater number of control animals by multiplying the total tumor volume for the control animals by 7/12.

[12] = biomodulator assay (general); settings: in words
Description: All biomodulators will have at least the following effects, which can be measured as indicated above:
a. Biomodulators cause, at a concentration in the general range of 100 pM-1 μm, the differentiation of lymphocytes. This differentiation can be detected by, for example, the increased production of specific and non-specific antibodies in response to the presence of biomodulator in the culture medium, e.g., according to the HPBL method discussed above in C, or the alteration in the class of antibodies being produced by a cell line, e.g., from IgM to IgG, e.g., according to the method disclosed in the same reference.
b. Biomodulators cause, at a concentration in the general range of 100 pM-1 μm, the alteration of the cell surface oligosaccharide display of IMR-90 cells in culture as discussed in A. above.
Activity in both of these assays is a necessary and sufficient measure of whether or not a given substance is a biomodulator, as defined herein.

TNP-Ficoll = experiment: in vivo antibody (PFC) response to T-independent antigen TNP-Ficoll; design: species or system mouse; settings: in words
Procedure: In this case both IgM and IgG hapten specific responses were recorded as well as non-antigen specific plaque responses (Ig-PFC) using a Protein A coated red blood cell target.
The TNP-Ficoll antigen is administered as the SRBC antigen was above, by i.p. injection and the response assessed by conjugating the TNP hapten directly to the SRBC target, thus obviating any potential "carrier" effect. […] In this case, a third experimental parameter has been added to the study, the production of non-specific immunoglobulin (Ig-PFC). This parameter provides information on the general status of the humoral response regardless of antigen specificity. The TNP-Ficoll antigen does elicit a modest Ig-PFC response but little if any IgG specific response. […] In this case there is a very large specific and non-specific augmentation.

CC(C)OC(=O)C[C@H](O)C[C@@H](O)/C=C/c1c(C(C)C)nc(-c2ccccc2)n1-c1ccc(F)cc1 (relative stereo) [Compound IIe']
Proliferation ((3H) thymidine incorporation into DNA) [1]: 0.85
IC50 (canine glioma cells [2]; 24 h): 750 nM
IC50 (canine glioma cells [2]; 72 h): 800 nM
IC50 (canine glioma cells [2]; 96 h): 900 nM
IC50 (canine glioma cells [3]; 24 h): 75 nM
IC50 (canine glioma cells [3]; 72 h): 70 nM
IC50 (canine glioma cells [3]; 96 h): 75 nM
IC50 (canine glioma cells [4]; 24 h, first four lines, read-out: I50% (thymidine incorporation)): 50 nM
IC50 (canine glioma cells [4]; 48 h, first four lines, read-out: I50% (thymidine incorporation)): 75 nM
IC50 (canine glioma cells [4]; 48 h, second four lines, read-out: I50% (thymidine incorporation)): 75 nM
IC50 (canine glioma cells [4]; 72 h, first four lines, read-out: I50% (thymidine incorporation)): 80 nM
IC50 (canine glioma cells [4]; 96 h, first four lines, read-out: I50% (thymidine incorporation)): 50 nM
IC50 (canine glioma cells [4]; 96 h, second four lines, read-out: I50% (thymidine incorporation)): 50 nM
IC50 (canine glioma cells [4]; text to Table V, read-out: I50% (thymidine incorporation into DNA)): 50 to 80 nM
IC50 (canine glioma cells [4]; 24 h, second four lines, read-out: I50% (thymidine incorporation)): 100 nM
IC50 (canine glioma cells [4]; 72 h, second four lines, read-out: I50% (thymidine incorporation)): 30 nM
% Change of Tg (canine glioma cells [5]; 10 nM, 72 × 3 h): 180%
Tg (canine glioma cells [5]; 10 nM, 72 h, control 18.6): 25.3 h
contact inhibition (canine glioma cells [5]; in words): showed evidence of contact inhibition as the cells approached confluency
Tg ([6]; 10 nM, 72 h, control 26.5): 84.9 h
generation time after drug withdrawal ([6]; two passages, in words): the generation time returned to control levels
IC50 (HMGCoA reductase [7]): 3 nM
ED50 (HMGCoA reductase [8]): 0.025 mg/kg

CC(C)OC(=O)C[C@H](O)C[C@@H](O)/C=C/c1c(C(C)C)nc(-c2ccccc2)n1-c1ccc(F)cc1 [Compound IIc']
Inhibitory Concentration (inhibiting nonspecific IgG production below normal production) ([9]; HPBL): none found
Stimulation of IgG Production, Concentration ([9]; HPBL): 100 pM
optimal dose in vitro, immune stimulation ([9]; HPBL assay): 100 pM
Stimulation of IgG Production, Percent ([9]; HPBL, at the stimulating concentration): 6200%
Proliferation ((3H) thymidine incorporation into DNA) [1]: 1.2
antibody titer versus control without antigen ([10]; in words): titers of antibody increased over the control antibody titer significantly
IC-50% Titer (Anti-CG) ([10]; treated 2+ months, tumor regressed): Baseline Values
slope M of Y = MX + B (linear regression of toxicity) (CG tumor; December 14, 1987): 0.05
slope M of Y = MX + B (linear regression of toxicity) (CG tumor; February 9, 1988): 0.35
slope M of Y = MX + B (linear regression of toxicity) (CG tumor; February 17, 1988): 0.75
slope M of Y = MX + B (linear regression of toxicity) (CG tumor; March 31, 1988): 0.05
CML (CG tumor; additional 2 months of administration, no CG antigen, in words): significant increase in CML
CG-specific CML (CG tumor; after 14 days, I.P., M, W, F, in words): only baseline levels of CG-specific CML were present
optimal dose in vivo, equivalent concentration with uniform distribution (canine glioma cells [11]; 100 ng/kg): 250 pM
cytostatic activity at other doses (canine glioma cells [11]; 10 and 100 μg/kg, 1 ng/kg, in words): Little or no cytostatic activity
most effective dosage for inhibition of canine glioma (canine glioma cells [11]; I.P., M, W, F): 100 ng/kg

Cc1c(/C=C/C(O)CC(O)CC(=O)O)ccc2c1C(O)CC(C)C2 (centres unmarked) [colletruncoic acid]
biomodulator activity [12]: has been shown to have biomodulator activity

Dextran
PFC response to TNP-Ficoll (TNP-Ficoll): some stimulatory effect; also recorded: marked cellular proliferation but little differentiative response
